Test results from article PMC11676982, “Heterotropic Activation of Cytochrome P450 3A4 by Perillyl Alcohol” (Pharmaceutics, 2024).

How the values were obtained:
[1] = biological target: CYP2C19 (Homo sapiens, UniProt P33261); experiment: Direct CYP inhibition assay in pooled HLMs, CYP2C19 (S-mephenytoin)
[2] = biological target: T1, CYP2A6 (Homo sapiens, UniProt P11509); experiment: Metabolism-dependent inhibition assay (IC50 shift) in pooled HLMs, CYP2A6; conditions: substrate coumarin; for IC50: CYP2A6, pooled HLMs, 95% CI in parentheses
T1 sequence (P11509 1-494): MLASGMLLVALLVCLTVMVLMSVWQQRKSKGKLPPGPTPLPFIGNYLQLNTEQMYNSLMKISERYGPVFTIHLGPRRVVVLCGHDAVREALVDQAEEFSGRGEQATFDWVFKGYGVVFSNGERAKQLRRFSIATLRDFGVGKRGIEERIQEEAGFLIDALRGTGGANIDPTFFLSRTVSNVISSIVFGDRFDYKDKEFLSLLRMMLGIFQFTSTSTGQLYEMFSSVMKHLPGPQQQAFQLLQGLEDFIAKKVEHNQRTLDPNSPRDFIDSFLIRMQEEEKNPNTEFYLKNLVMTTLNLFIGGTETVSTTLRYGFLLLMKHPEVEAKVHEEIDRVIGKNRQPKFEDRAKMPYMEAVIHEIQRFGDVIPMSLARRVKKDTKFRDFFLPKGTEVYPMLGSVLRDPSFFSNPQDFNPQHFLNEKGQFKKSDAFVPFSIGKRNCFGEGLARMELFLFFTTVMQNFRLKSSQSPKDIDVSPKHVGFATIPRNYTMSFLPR
Method: The experiments for determining metabolism-dependent inhibition were conducted utilizing a non-dilution method. […] The pre-incubation was initiated by the addition of 1 mM NADPH and incubation for 30 min. Subsequently, final incubation was performed with the addition of a substrate (5 μM coumarin or 50 μM bupropion) in the presence of NADPH for 10 min; the total volume of the mixture was 200 μL. […] Mixtures were subjected to centrifugation at 3000× g for 20 min at 4 °C, and the supernatants were analyzed using LC-MS/MS. The experiment was performed using three separate samples.
The CYP-mediated activities in the presence of test substances were expressed as percentages of the corresponding control values.

[3] = biological target: T2, CYP2C9 (Homo sapiens, UniProt P11712); experiment: Effect of POH on fimasartan (FMS) metabolism in pooled HLMs: CYP2C9-mediated hydroxy butyl FMS formation; assay type: in vitro ADME; conditions: FMS 30 μM, 95% CI in parentheses; for IC50: pooled HLMs, 10 min
T2 sequence (P11712 whole entry): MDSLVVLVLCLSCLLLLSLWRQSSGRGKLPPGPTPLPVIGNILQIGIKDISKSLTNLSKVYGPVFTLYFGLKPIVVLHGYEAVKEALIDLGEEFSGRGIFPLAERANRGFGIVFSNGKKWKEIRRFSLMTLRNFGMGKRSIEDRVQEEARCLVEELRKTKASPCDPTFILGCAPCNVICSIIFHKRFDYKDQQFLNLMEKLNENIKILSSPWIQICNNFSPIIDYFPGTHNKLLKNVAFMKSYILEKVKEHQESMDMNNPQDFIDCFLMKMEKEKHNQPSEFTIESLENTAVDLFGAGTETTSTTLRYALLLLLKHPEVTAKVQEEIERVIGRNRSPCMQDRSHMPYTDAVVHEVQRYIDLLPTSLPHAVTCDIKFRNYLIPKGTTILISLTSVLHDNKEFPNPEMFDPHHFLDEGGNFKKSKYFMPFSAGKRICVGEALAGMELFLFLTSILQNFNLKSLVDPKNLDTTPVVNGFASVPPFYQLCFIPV
Method: (§1) The substrates were applied at a concentration that approximated their Km values. The reactions were preincubated for 5 min before being initiated with the addition of 1 mM NADPH. After 10 min incubation, reactions containing atorvastatin, buspirone, FMS, or nifedipine were terminated by the addition of 200 μL of ice-cold acetonitrile with 100 nM carbamazepine as an internal standard. For terminating reactions with donepezil or tadalafil, 200 μL of ice-cold methanol containing 0.5% (v/v) formic acid and 1 μM carbamazepine as internal standard was added to samples. […] The experiment was performed using three separate samples.

[4] = biological target: T3, CYP3A4 (Homo sapiens, UniProt P08684); experiment: Effect of POH on fimasartan (FMS) metabolism in pooled HLMs: CYP3A4-mediated BR-A-557 formation; assay type: in vitro ADME; conditions: FMS 30 μM, 100 μM (−)-POH
T3 sequence (P08684 whole entry): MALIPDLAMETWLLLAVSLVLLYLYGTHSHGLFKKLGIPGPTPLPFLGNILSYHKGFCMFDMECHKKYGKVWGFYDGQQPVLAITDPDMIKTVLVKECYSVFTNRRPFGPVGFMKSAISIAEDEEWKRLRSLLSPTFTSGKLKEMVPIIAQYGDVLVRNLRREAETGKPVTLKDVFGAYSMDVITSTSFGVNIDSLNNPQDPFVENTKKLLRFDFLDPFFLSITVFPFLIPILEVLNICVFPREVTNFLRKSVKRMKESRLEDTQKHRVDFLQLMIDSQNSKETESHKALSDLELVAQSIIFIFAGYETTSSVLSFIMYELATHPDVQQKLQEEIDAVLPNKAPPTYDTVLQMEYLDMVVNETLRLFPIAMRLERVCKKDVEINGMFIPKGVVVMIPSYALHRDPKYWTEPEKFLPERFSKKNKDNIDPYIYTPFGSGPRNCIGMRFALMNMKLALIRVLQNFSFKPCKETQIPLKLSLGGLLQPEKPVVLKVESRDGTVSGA
Method: as §1

[5] = biological target: T4, CYP2B6 (Homo sapiens, UniProt P20813); experiment: Determination of CYP inhibition mode and Ki in pooled HLMs, CYP2B6-mediated bupropion hydroxylation
T4 sequence (P20813 1-491): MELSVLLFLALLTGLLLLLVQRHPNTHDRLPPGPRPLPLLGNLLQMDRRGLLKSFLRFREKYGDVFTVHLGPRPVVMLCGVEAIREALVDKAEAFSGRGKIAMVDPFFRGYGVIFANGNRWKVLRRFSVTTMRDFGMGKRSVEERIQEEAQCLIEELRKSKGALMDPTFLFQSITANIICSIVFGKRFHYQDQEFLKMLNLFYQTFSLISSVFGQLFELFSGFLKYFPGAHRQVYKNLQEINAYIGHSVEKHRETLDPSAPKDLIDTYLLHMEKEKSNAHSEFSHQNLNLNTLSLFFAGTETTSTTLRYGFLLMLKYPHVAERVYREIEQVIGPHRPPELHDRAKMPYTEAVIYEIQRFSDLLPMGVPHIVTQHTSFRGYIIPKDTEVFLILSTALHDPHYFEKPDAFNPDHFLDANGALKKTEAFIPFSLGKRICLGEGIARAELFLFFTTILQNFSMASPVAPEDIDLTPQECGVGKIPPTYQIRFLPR
Method: A 5 min pre-incubation was performed prior to initiating reactions with the addition of 1 mM NADPH. After incubation at 37 °C for 10 min, 200 μL of ice-cold acetonitrile containing 100 nM carbamazepine as an internal standard was added to terminate the reaction. The samples were agitated and centrifuged at 4 °C for 20 min at 3000× g. The supernatants were transferred to a 96-well plate for LC-MS/MS analysis. The experiment was performed using three separate samples.
Data acquired from the evaluation of enzyme inhibition using various concentrations of substrates and test compounds were fit to different models (competitive, noncompetitive, uncompetitive, or mixed), and inhibition constant (Ki) and goodness of fit values were obtained using GraphPad Prism. The appropriate type of inhibition was selected based on statistical goodness of fit tests including Akaike’s information criterion (AICc) with correction for small sample size and the standard deviation of the residuals (Sy.x).

[6] = system: CYP3A4 and CYP2C9; experiment: Effect of POH on fimasartan (FMS) metabolism in pooled HLMs: FMS S-oxide formation; assay type: in vitro ADME, human; conditions: FMS 30 μM, (−)-POH 3.2–100 μM
Method: as §1

[7] = biological target: T2, CYP2C9; conditions: microsomes, 10 min, 50 μM, pH 7.4
[8] = biological target: T3, CYP3A4; experiment: Effect of POH on the metabolism of other CYP3A4 substrates in pooled HLMs; assay type: in vitro ADME; conditions: (−)-POH 3.2–100 μM, substrates near Km
Method: as §1

[9] = biological target: T5, CYP1A2 (Homo sapiens, UniProt P05177); experiment: Direct CYP inhibition assay in pooled HLMs, CYP1A2 (phenacetin); conditions: up to 50 μM
T5 sequence (P05177 1-516): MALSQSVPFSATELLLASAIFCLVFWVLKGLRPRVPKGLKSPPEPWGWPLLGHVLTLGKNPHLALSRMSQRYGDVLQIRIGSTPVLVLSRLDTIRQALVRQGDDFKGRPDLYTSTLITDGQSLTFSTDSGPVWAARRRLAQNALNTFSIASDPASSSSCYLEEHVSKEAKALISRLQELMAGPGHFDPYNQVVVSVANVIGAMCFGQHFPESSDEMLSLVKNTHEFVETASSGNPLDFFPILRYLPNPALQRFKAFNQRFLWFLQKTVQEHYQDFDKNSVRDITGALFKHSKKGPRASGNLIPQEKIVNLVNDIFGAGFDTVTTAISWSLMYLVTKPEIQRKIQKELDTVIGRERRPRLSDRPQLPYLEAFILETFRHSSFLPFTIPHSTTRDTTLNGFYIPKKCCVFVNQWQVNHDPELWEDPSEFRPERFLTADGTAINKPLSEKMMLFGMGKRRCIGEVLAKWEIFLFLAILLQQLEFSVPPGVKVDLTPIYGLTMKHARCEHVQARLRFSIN

CYP2C19, sequence (P33261 whole entry): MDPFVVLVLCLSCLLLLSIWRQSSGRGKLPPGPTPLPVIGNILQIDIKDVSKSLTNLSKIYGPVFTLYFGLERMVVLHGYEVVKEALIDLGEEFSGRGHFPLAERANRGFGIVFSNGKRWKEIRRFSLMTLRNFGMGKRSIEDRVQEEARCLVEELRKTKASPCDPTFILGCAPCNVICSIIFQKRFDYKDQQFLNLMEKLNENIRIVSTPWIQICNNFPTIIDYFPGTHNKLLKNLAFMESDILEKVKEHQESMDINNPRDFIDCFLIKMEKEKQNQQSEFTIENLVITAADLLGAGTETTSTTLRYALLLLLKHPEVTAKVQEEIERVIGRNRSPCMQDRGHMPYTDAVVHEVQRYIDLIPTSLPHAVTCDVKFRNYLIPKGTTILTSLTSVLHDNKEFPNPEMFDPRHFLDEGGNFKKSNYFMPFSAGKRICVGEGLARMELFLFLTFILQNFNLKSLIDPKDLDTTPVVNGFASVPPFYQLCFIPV

C=C(C)[C@@H]1CC=C(CO)CC1 [(−)-POH, (−)-perillyl alcohol]
IC50 [1]: > 50 µM | IC50 ([2]; IC50, pre-incubation with NADPH, 30 min pre-incubation with NADPH): 23.4 µM | IC50 ([2]; IC50, pre-incubation without NADPH, 30 min pre-incubation without NADPH): 24.3 µM | IC50 fold-shift, CYP2A6 ([2]; IC50 without NADPH/IC50 with NADPH): 1.04 | IC50 ([3]; IC50 against formation of 1-hydroxy butyl FMS): 123 µM | IC50 ([3]; IC50 against formation of 4-hydroxy butyl FMS): 63 µM | IC50 at 10 min ([3]; human, pooled human liver microsomes, pH 7.4, pooled HLMs, read-out: IC50 against formation of 2- or 3-hydroxy butyl FMS): 62 µM | BR-A-557 formation from FMS relative to the control [4]: 1.29 fold | Type of inhibition, CYP2B6 ([5]; best fit by AICc and Sy.x, Dixon plots): mixed inhibition model | Ki, CYP2B6, uncompetitive model (not selected) ([5]; pooled HLMs, bupropion, 95% CI in parentheses): 4.54 (3.62–5.56) μM | Formation of FMS S-oxide [6]: reduced | CYP2C9 activity, % of the control level [7]: 64.2% | Effect on CYP3A4-mediated metabolism of atorvastatin, buspirone, donepezil, nifedipine, and tadalafil [8]: did not significantly affect | Inhibition of CYP1A2 activity [9]: not significantly inhibited
